Results published in the NIST ThermoML archive (doi:10.1021/acs.jced.7b00750).

Experiments:
[1] = 100 kPa, Liquid, Vibrating tube method
[2] = xn = mol fraction of the nth substance listed; details: 100 kPa, Liquid, Vibrating tube method, x2 = 0

O [water]
[1]
Details	mass density [kg/m3]
274.15 K	999.899
275.15 K	999.94
276.15 K	999.964
277.15 K	999.972
278.15 K	999.964
279.15 K	999.94
280.15 K	999.901
281.15 K	999.848
282.15 K	999.781
283.15 K	999.699
323.15 K	988.03
333.15 K	983.191

O [water] + CNC(N)=O
[2]
Details	mass density [kg/m3]
274.15 K	999.899
275.15 K	999.94
276.15 K	999.964
277.15 K	999.972
278.15 K	999.964
279.15 K	999.94
280.15 K	999.901
281.15 K	999.848
282.15 K	999.781
283.15 K	999.699
323.15 K	988.03
333.15 K	983.191
